Laboratory results published in patent US20090044345A1, “Use of Metal Complex Compounds as Oxidation Catalysts” (priority 2006, published 2009).

How the values were obtained:
[1] = Stain bleaching in laundry at ambient temperature (hydrogen peroxide), tomato stain; parameters: key: CIE brightness Y difference: washed with catalyst minus without; details: 10 mmol/l hydrogen peroxide; catalyst 25 μmol/l; IEC 60456* washing agent 7.5 g/l; 50 minutes at ambient temperature; brightness vs. absence of catalyst
Procedure: (§1) 1 g of a circular stain (BC01 Tea, CFT; WFK10.0 Carrot juice, WFK; CS20/2 Tomato, CFT; BC04 Curry, CFT) was added into a vial with 3 ml washing liquor. The liquor contained a standard washing agent (IEC 60456*) in a concentration of 7.5 g/l. The hydrogen peroxide concentration was 10 mmol/l. The catalyst concentration (1:1 in-situ complex of the ligand with manganese(II) chloride tetrahydrate or iron (ii) chloride in methanolic solution) was 25 μmol/l. The vial was shaken with a shaker for 50 minutes at ambient temperature. After the treatment the fabric was carefully rinsed and ironed. The brightness values Y according to the CIE standard procedure of the stained test fabrics were measured with a Gretag SPM 100 instrument prior to and after the treatment, respectively. The bleaching effect is given as ΔΔY, i.e. the difference between the brightness of the fabrics washed in presence and in the absence of a catalyst, respectively.

[2] = Stain bleaching in laundry at ambient temperature (hydrogen peroxide), tea stain; parameters: key: CIE brightness Y difference: washed with catalyst minus without; details: 10 mmol/l hydrogen peroxide; catalyst 25 μmol/l; IEC 60456* washing agent 7.5 g/l; 50 minutes at ambient temperature; brightness vs. absence of catalyst
Procedure: as §1

[3] = Stain bleaching in laundry at 40° C.; parameters: key: CIE brightness increase of stain vs. reference run without catalyst; details: tea-stained cotton; 10 mmol/l hydrogen peroxide; catalyst 20 μmol/l; IEC 60456 A* detergent 7.5 g/l; LINITEST 30 minutes at 40° C.; relative to no catalyst
Procedure: 7.5 g of white cotton fabric and 2.5 g of tea-stained cotton fabric were treated in 80 ml of washing liquor. The liquor contained a standard detergent (IEC 60456 A*) in a concentration of 7.5 g/l. The hydrogen peroxide concentration was 10 mmol/l. The catalyst concentration (1:1 in-situ complex of the ligand with manganese(II) chloride tetrahydrate in methanolic solution) was 20 μmol/l. The washing process was carried out in a steel beaker in a LINITEST apparatus for 30 minutes at 40° C. To evaluate the bleaching results, the increase in brightness ΔΔY of the stains relative to reference experiments without the addition of catalyst (brightness according to CIE) was determined spectrophotometrically.

[4] = Dishwashing: removal of tea deposit from tea-stained cups (IKW method); parameters: key: visual scale 0 = unchanged, very strong deposit to 10 = no deposit; details: visual scale 0 (very strong deposit) to 10 (no deposit); carbonate buffer pH 9.6, 44 mM hydrogen peroxide, 20 μM catalyst, 15 minutes; reference without catalyst 4.5
Procedure: Tea-stained cups were prepared according to the IKW method (IKW-Arbeitskreis Maschinenspülmittel, “Methoden zur Bestimmung der Reinigungsleistung von maschinellen Geschirrspülmitteln (Part A and B)”, SÖFW, 11+14, 1998). Tea-stained cups were filled with a carbonate buffer solution (pH 9.6) containing 44 mM hydrogen peroxide and 20 μM catalyst (1:1 in-situ complex of the ligand with manganese(II) chloride tetrahydrate in methanolic solution). After 15 minutes the solution was removed, and the cups were rinsed with water. The removal of the tea deposit was evaluated visually on a scale from 0 (i.e. unchanged, very strong deposit) to 10 (i.e. no deposit).

[5] = Stain bleaching in laundry at ambient temperature (hydrogen peroxide), carrot juice stain; parameters: key: CIE brightness Y difference: washed with catalyst minus without; details: 10 mmol/l hydrogen peroxide; catalyst 25 μmol/l; IEC 60456* washing agent 7.5 g/l; 50 minutes at ambient temperature; brightness vs. absence of catalyst
Procedure: as §1

[6] = Stain bleaching in laundry at ambient temperature (hydrogen peroxide), curry stain; parameters: key: CIE brightness Y difference: washed with catalyst minus without; details: 10 mmol/l hydrogen peroxide; catalyst 25 μmol/l; IEC 60456* washing agent 7.5 g/l; 50 minutes at ambient temperature; brightness vs. absence of catalyst
Procedure: as §1

[7] = Stain bleaching in laundry with peracetic acid as oxidant, carrot juice stain; details: peracetic acid 3 mmol/l; catalyst 10 μmol/l; IEC 60456* washing agent 7.5 g/l; 50 minutes at ambient temperature; vs. absence of catalyst
Procedure: as §1, with “CFT; WFK 0.0” for “CFT; WFK10.0”, “The peracetic acid” for “The hydrogen peroxide”, “was 3” for “was 10”, “was 10” for “was 25”, “presence vs.” for “presence and in”

[8] = Stain bleaching in laundry with peracetic acid as oxidant, tomato stain; details: peracetic acid 3 mmol/l; catalyst 10 μmol/l; IEC 60456* washing agent 7.5 g/l; 50 minutes at ambient temperature; vs. absence of catalyst
Procedure: as §1, with “CFT; WFK 0.0” for “CFT; WFK10.0”, “The peracetic acid” for “The hydrogen peroxide”, “was 3” for “was 10”, “was 10” for “was 25”, “presence vs.” for “presence and in”

[9] = Stain bleaching in laundry with peracetic acid as oxidant, curry stain; details: peracetic acid 3 mmol/l; catalyst 10 μmol/l; IEC 60456* washing agent 7.5 g/l; 50 minutes at ambient temperature; vs. absence of catalyst
Procedure: as §1, with “CFT; WFK 0.0” for “CFT; WFK10.0”, “The peracetic acid” for “The hydrogen peroxide”, “was 3” for “was 10”, “was 10” for “was 25”, “presence vs.” for “presence and in”

[10] = Stain bleaching in laundry with peracetic acid as oxidant, tea stain; details: peracetic acid 3 mmol/l; catalyst 10 μmol/l; IEC 60456* washing agent 7.5 g/l; 50 minutes at ambient temperature; vs. absence of catalyst
Procedure: as §1, with “CFT; WFK 0.0” for “CFT; WFK10.0”, “The peracetic acid” for “The hydrogen peroxide”, “was 3” for “was 10”, “was 10” for “was 25”, “presence vs.” for “presence and in”

Row | Compound | ΔΔY (Tomato) [1] | ΔΔY (Tea) [2] | ΔΔY [3] | Rating [4] | ΔΔY (Carrot Juice) [5] | ΔY Δ(Curry) [6] | ΔΔY (Carrot Juice) [7] | ΔΔY (Tomato) [8] | ΔΔY (Curry) [9] | ΔΔY (Tea) [10]
1 | CN(Cc1ccccn1)Cc1cc(O)cc(-c2ccccn2)n1 [Ligand 23-Mn, 6-[(methyl-pyridin-2-ylmethyl-amino)-methyl]-[2,2′]bipyridinyl-4-ol] | 0.6 | 2.9 | 2.1 | 6.0 | 1.3 | 7.4 | – | – | – | –
2 | CN(Cc1ccccn1)Cc1cc(O)cc(-c2cc(N3CCCC3)ccn2)n1 [Ligand 27-Mn, 6-[(methyl-pyridin-2-ylmethyl-amino)-methyl]-4′-pyrrolidin-1-yl-[2,2′]bipyridinyl-4-ol] | 4.7 | 5.3 | 2.7 | 6.7 | 1.3 | 8.2 | – | – | – | –
3 | CN1CCN(c2ccnc(-c3cc(O)cc(CN(C)Cc4ccccn4)n3)c2)CC1 [Ligand 29-Mn, 4′-(4-methyl-piperazin-1-yl)-6-[(methyl-pyridin-2-ylmethyl-amino)-methyl]-[2,2′]bipyridinyl-4-ol] | 4.4 | 6.4 | – | 6.1 | 3.1 | 8.3 | – | – | – | –
4 | CN1CCN(c2ccnc(-c3cc(O)cc(CN(C)Cc4ccccn4)n3)c2)CC1 [Ligand 29/Fe, 4′-(4-methyl-piperazin-1-yl)-6-[(methyl-pyridin-2-ylmethyl-amino)-methyl]-[2,2′]bipyridinyl-4-ol] | – | – | 5.0 | – | – | – | – | – | – | –
5 | CN(Cc1ccccn1)Cc1cc(O)cc(-c2cc(N3CC[N+](C)(C)CC3)ccn2)n1.[I-] [Ligand 30-Mn, 4-{4′-hydroxy-6′-[(methyl-pyridin-2-ylmethyl-amino)-methyl]-[2,2′]bipyridinyl-4-yl}-1,1-dimethyl-piperazin-1-ium iodide] | 7.4 | 7.0 | 4.5 | 7.8 | 3.6 | 7.1 | – | – | – | –
6 | CN(Cc1cc(N(C)C)ccn1)Cc1cc(O)cc(-c2cc(N3CCCC3)ccn2)n1 [Ligand 32-Mn, 6-{[(4-dimethylamino-pyridin-2-ylmethyl)-methyl-amino]-methyl}-4′-pyrrolidin-1-yl-[2,2′]bipyridinyl-4-ol] | 5.6 | 6.4 | 4.5 | 6.0 | 3.1 | 8.5 | 2.5 | 1.2 | 5.3 | 5.6
7 | CN(Cc1cc(N(C)C)ccn1)Cc1cc(O)cc(-c2cc(N(C)CCO)ccn2)n1 [Ligand 33-Mn, 6-{[(4-dimethylamino-pyridin-2-ylmethyl)-methyl-amino]-methyl}-4′-[(2-hydroxy-ethyl)-methyl-amino]-[2,2′]bipyridinyl-4-ol] | 6.0 | 5.5 | 3.9 | 7.1 | 3.9 | 9.1 | 3.4 | 1.5 | 5.7 | 6.1
8 | COc1c(C)cnc(CN(C)Cc2cc(O)cc(-c3cc(N4CCCC4)ccn3)n2)c1C [Ligand 36-Mn, 6-{[(4-methoxy-3,5-dimethyl-pyridin-2-ylmethyl)-methyl-amino]-methyl}-4′-pyrrolidin-1-yl-[2,2′]bipyridinyl-4-ol] | 4.9 | 4.0 | 1.6 | 6.9 | 3.3 | 6.3 | – | – | – | –
9 | CN(Cc1cc(N2CCCC2)ccn1)Cc1cc(O)cc(-c2cc(N3CCCC3)ccn2)n1 [Ligand 39-Mn, 6-{[methyl-(4-pyrrolidin-1-yl-pyridin-2-ylmethyl)-amino]-methyl}-4′-pyrrolidin-1-yl-[2,2′]bipyridinyl-4-ol] | 8.8 | 5.1 | 4.0 | 6.3 | 4.2 | 7.9 | – | – | – | –
10 | CN(Cc1cc(N(C)C)ccn1)Cc1cc(O)cc(-c2cc(N(C)C)ccn2)n1 [Ligand 40a-Mn, 4′-dimethylamino-6-{[(4-dimethylamino-pyridin-2-ylmethyl)-methyl-amino]-methyl}-[2,2′]bipyridinyl-4-ol] | 5.0 | 7.0 | 3.0 | 5.9 | 5.0 | 3.0 | 1.6 | 3.5 | 6.4 | 7.0
11 | CN(Cc1cc(N(C)C)ccn1)Cc1cc(N(C)C)cc(-c2cc(N(C)C)ccn2)n1 [Ligand 40b-Mn] | 2.3 | 1.7 | 1.0 | 5.8 | 2.7 | 3.7 | – | – | – | –
12 | CN(Cc1cc(-n2cccc2)ccn1)Cc1cc(O)cc(-c2cc(N(C)C)ccn2)n1 [Ligand 40c-Mn, 4′-dimethylamino-6-{[methyl-(4-pyrrol-1-yl-pyridin-2-ylmethyl)-amino]-methyl}-[2,2′]bipyridinyl-4-ol] | 1.3 | 3.9 | 2.2 | 6.8 | 2.5 | 4.9 | – | – | – | –
